One series deals with cells. The settings on record: cited from earlier work.
The test system of series [1] is H9C2 cells. Put plainly: Cell viability. It is filed as cell-based. The settings on record: in the presence of CoCl2; figure 2c.
The subject of series [2] is H9C2 cells. As to the kind of experiment: Reactive oxygen species. Format: cell-based. The settings on record: various concentrations of CoCl2; figure 2b.

Regarding Branched poly(ethylenimine) [PEI], the cytotoxicity result in the series on cells is “less than 10%”.
Turning to `[Cl][Co][Cl]` [CoCl2, cobalt chloride], in the series with H9C2 cells [1], the “CoCl2 toxicity (cell viability)” value is recorded as “no artifact caused by CoCl2 toxicity”. Further, the “generation of ROS” value in the series on H9C2 cells [2] is listed as “dependent on the concentration of CoCl2 up to 25 μmol”.

Values taken from PMC3372625 (Journal of Controlled Release, 2012).
